Tests used:
human orexin-2 receptor = human orexin-2 receptor (Homo sapiens (Human), UniProt O43614); experiment: FLIPR Ca2+ flux assay, orexin-2 receptor; type: cell-based; settings: CHO cells expressing human orexin-2 receptor; agonist 70 pM Ala-6,12 orexin-A; read-out: hOX2R FLIPR IC50
Experimental: The utility of the compounds in accordance with the present invention as orexin receptor OX1R and/or OX2R antagonists may be readily determined without undue experimentation by methodology well known in the art, including the “FLIPR Ca^2+ Flux Assay” (Okumura et al., Biochem. Biophys. Res. Comm. 280:976-981, 2001). In a typical experiment the OX1 and OX2 receptor antagonistic activity of the compounds of the present invention was determined in accordance with the following experimental method. For intracellular calcium measurements, Chinese hamster ovary (CHO) cells expressing the rat orexin-1 receptor or the human orexin-2 receptor, are grown in Iscove's modified DMEM containing 2 mM L-glutamine, […], 1% hypoxanthine-thymidine supplement, 100 U/ml penicillin, 100 μg/ml streptomycin and 10% heat-inactivated fetal calf serum (FCS). The cells are seeded at 20,000 cells/well into Becton-Dickinson black 384-well clear bottom sterile plates coated with poly-D-lysine. All reagents were from GIBCO-Invitrogen Corp. The seeded plates are incubated overnight at 37° C. and 5% CO2. Ala-6,12 human orexin-A as the agonist is prepared as a 1 mM stock solution in 1% bovine serum albumin (BSA) and diluted in assay buffer (HBSS containing 20 mM HEPES, 0.1% BSA and 2.5 mM probenecid, pH7.4) for use in the assay at a final concentration of 70 pM. Test compounds are prepared as 10 mM stock solution in DMSO, then diluted in 384-well plates, first in DMSO, then assay buffer. On the day of the assay, cells are washed 3 times with 100 μl assay buffer and then incubated for 60 min (37° C., 5% CO2) in 60 μl assay buffer containing 1 μM Fluo-4AM ester, 0.02% pluronic acid, and 1% BSA. The dye loading solution is then aspirated and cells are washed 3 times with 100 μl assay buffer. 30 μl of that same buffer is left in each well. Within the Fluorescent Imaging Plate Reader (FLIPR, Molecular Devices), test compounds are added to the plate in a volume of 25 μl, incubated for 5 min and finally 25 μl of agonist is added. Fluorescence is measured for each well at 1 second intervals for 5 minutes and the height of each fluorescence peak is compared to the height of the fluorescence peak induced by 70 pM Ala-6,12 orexin-A with buffer in place of antagonist. For each antagonist, IC50 value (the concentration of compound needed to inhibit 50% of the agonist response) is determined. Alternatively, compound potency can be assessed by a radioligand binding assay (described in Bergman et. al. Bioorg. Med. Chem. Lett. 2008, 18, 1425-1430) in which the inhibition constant (Ki) is determined in membranes prepared from CHO cells expressing either the OX1 or OX2 receptor. The intrinsic orexin receptor antagonist activity of a compound which may be used in the present invention may be determined by these assays.

hOX1R = hOX1R (Homo sapiens, UniProt O43613); experiment: FLIPR Ca2+ flux assay, orexin-1 receptor; type: cell-based; settings: CHO cells expressing orexin-1 receptor; agonist 70 pM Ala-6,12 orexin-A

human orexin-2 receptor, sequence (O43614 whole entry): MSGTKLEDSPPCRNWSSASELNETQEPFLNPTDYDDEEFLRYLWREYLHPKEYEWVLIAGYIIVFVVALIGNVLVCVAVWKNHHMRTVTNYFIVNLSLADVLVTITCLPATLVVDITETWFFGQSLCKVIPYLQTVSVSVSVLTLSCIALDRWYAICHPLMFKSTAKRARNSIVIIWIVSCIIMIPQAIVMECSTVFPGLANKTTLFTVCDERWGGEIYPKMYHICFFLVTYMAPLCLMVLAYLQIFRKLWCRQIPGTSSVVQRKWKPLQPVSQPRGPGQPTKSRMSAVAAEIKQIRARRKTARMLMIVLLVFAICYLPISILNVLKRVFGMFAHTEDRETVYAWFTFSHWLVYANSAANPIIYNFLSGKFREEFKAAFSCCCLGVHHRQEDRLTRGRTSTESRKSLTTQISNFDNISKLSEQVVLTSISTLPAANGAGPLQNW

SMILES: COc1ccnc(O[C@@H]2CC[C@@H](C)N(C(=O)c3ccc(OC)cc3-n3nccn3)C2)c1 [Example 20, 4-methoxy-2-{[(3R,6R)-1-{[4-methoxy-2-(2H-1,2,3-triazol-2-yl)phenyl]carbonyl}-6-methylpiperidin-3-yl]oxy}pyridine]
- IC50 (human orexin-2 receptor): 114 nM
- IC50 (hOX1R): 10000 nM

SMILES: C[C@@H]1CC[C@@H](Oc2cc(OC(F)F)ccn2)CN1C(=O)c1ccccc1-n1nccn1 [Example 52, (2-(2H-1,2,3-Triazol-2-yl)phenyl)((2R,5R)-5-((4-(difluoromethoxy)pyridin-2-yl)oxy)-2-methylpiperidin-1-yl)methanone]
- IC50 (human orexin-2 receptor): 4 nM
- IC50 (hOX1R): 194 nM

SMILES: CCOc1ccnc(O[C@@H]2CC[C@@H](C)N(C(=O)c3ccsc3-n3nccn3)C2)c1 [Example 62, 4-ethoxy-2-{[(3R,6R)-6-methyl-1-{[2-(2H-1,2,3-triazol-2-yl)thiophen-3-yl]carbonyl}piperidin-3-yl]oxy}pyridine]
- IC50 (human orexin-2 receptor): 22 nM
- IC50 (hOX1R): 1160 nM

SMILES: C[C@@H]1CC[C@@H](Oc2cc(OCC(F)F)ccn2)CN1C(=O)c1ccccc1-c1ncccn1 [Example 45, 2-(2-{[(2R,5R)-5-{[4-(2,2-difluoroethoxy)pyridin-2-yl]oxy}-2-methylpiperidin-1-yl]carbonyl}phenyl) pyrimidine]
- IC50 (human orexin-2 receptor): 33 nM
- IC50 (hOX1R): 2940 nM

SMILES: COc1ccnc(O[C@@H]2CC[C@@H](C)N(C(=O)c3ccccc3C(F)(F)F)C2)c1 [Example 13, 4-methoxy-2-{[(3R,6R)-6-methyl-1-{[2-(trifluoromethyl)phenyl]carbonyl}piperidin-3-yl]oxy}pyridine]
- IC50 (human orexin-2 receptor): 56.2 nM
- IC50 (hOX1R): 1760 nM

SMILES: COc1ccnc(O[C@@H]2CC[C@@H](C)N(C(=O)c3cccc(F)c3-n3nccn3)C2)c1 [Example 10, 2-{[(3R,6R)-1-{[3-fluoro-2-(2H-1,2,3-triazol-2-yl)phenyl]carbonyl}-6-methylpiperidin-3-yl]oxy}-4-methoxypyridine]
- IC50 (human orexin-2 receptor): 14.7 nM
- IC50 (hOX1R): 576 nM

SMILES: C[C@@H]1CC[C@@H](Oc2cc(OCC(F)F)ccn2)CN1C(=O)c1ccc(F)cc1-c1ncccn1 [Example 46, 2-(2-{[(2R,5R)-5-{[4-(2,2-difluoroethoxy)pyridin-2-yl]oxy}-2-methylpiperidin-1-yl]carbonyl}-5-fluorophenyl)pyrimidine]
- IC50 (human orexin-2 receptor): 63 nM
- IC50 (hOX1R): 3520 nM

SMILES: CCCOc1ccnc(O[C@@H]2CC[C@@H](C)N(C(=O)c3ccccc3-n3nccn3)C2)c1 [Example 43, 2-{[(3R,6R)-6-methyl-1-{[2-(2H-1,2,3-triazol-2-yl)phenyl]carbonyl}piperidin-3-yl]oxy}-4-propoxypyridine]
- IC50 (human orexin-2 receptor): 38.7 nM
- IC50 (hOX1R): 2490 nM

SMILES: C[C@@H]1CC[C@@H](Oc2cc(OCC(F)F)ccn2)CN1C(=O)c1ccc(F)cc1-n1nccn1 [Example 35, 4-(2,2-difluoroethoxy)-2-{[(3R,6R)-1-{[4-fluoro-2-(2H-1,2,3-triazol-2-yl)phenyl]carbonyl}-6-methylpiperidin-3-yl]oxy}pyridine]
- IC50 (human orexin-2 receptor): 62 nM
- IC50 (hOX1R): 3270 nM

SMILES: C[C@@H]1CC[C@@H](Oc2cc(OCC(F)F)ccn2)CN1C(=O)c1cccc(F)c1-n1nccn1 [Example 34, 4-(2,2-difluoroethoxy)-2-{[(3R,6R)-1-{[3-fluoro-2-(2H-1,2,3-triazol-2-yl)phenyl]carbonyl}-6-methylpiperidin-3-yl]oxy}pyridine]
- IC50 (human orexin-2 receptor): 42 nM
- IC50 (hOX1R): 2140 nM

SMILES: COc1ccnc(O[C@@H]2CC[C@@H](C)N(C(=O)c3ccccc3-n3nccn3)C2)c1 [Example 2, 4-methoxy-2-{[(3R,6R)-6-methyl-1-{[2-(2H-1,2,3-triazol-2-yl)phenyl]carbonyl}piperidin-3-yl]oxy}pyridine]
- IC50 (human orexin-2 receptor): 12.5 nM
- IC50 (hOX1R): 617 nM

SMILES: C[C@@H]1CC[C@@H](Oc2cc(OCC(F)F)ccn2)CN1C(=O)c1ccccc1C1(C#N)CC1 [Example 32, 1-(2-{[(2R,5R)-5-{[4-(2,2-difluoroethoxy)pyridin-2-yl]oxy}-2-methylpiperidin-1-yl]carbonyl}phenyl) cyclopropanecarbonitrile]
- IC50 (human orexin-2 receptor): 24 nM
- IC50 (hOX1R): 4360 nM

SMILES: C[C@@H]1CC[C@@H](Oc2cc(OCC(F)(F)F)ccn2)CN1C(=O)c1ccsc1-n1nccn1 [Example 63, 2-{[(3R,6R)-6-methyl-1-{[2-(2H-1,2,3-triazol-2-yl)thiophen-3-yl]carbonyl}piperidin-3-yl]oxy}-4-(2,2,2-trifluoroethoxy) pyridine]
- IC50 (human orexin-2 receptor): 55 nM
- IC50 (hOX1R): 8380 nM

SMILES: C[C@@H]1CC[C@@H](Oc2cc(OCF)ccn2)CN1C(=O)c1ccccc1-n1nccn1 [Example 53, (2-(2H-1,2,3-Triazol-2-yl)phenyl)((2R,5R)-5-((4-(fluoromethoxy)pyridin-2-yl)oxy)-2-methylpiperidin-1-yl)methanone]
- IC50 (human orexin-2 receptor): 8 nM
- IC50 (hOX1R): 490 nM

SMILES: CC(C)Oc1ccnc(O[C@@H]2CC[C@@H](C)N(C(=O)c3cc(F)ccc3-n3nccn3)C2)c1 [Example 26, 2-{[(3R,6R)-1-{[5-fluoro-2-(2H-1,2,3-triazol-2-yl)phenyl]carbonyl}-6-methylpiperidin-3-yl]oxy}-4-(1-methylethoxy) pyridine]
- IC50 (human orexin-2 receptor): 37.2 nM
- IC50 (hOX1R): 2480 nM

SMILES: C[C@@H]1CC[C@@H](Oc2cc(OC3CC3)ccn2)CN1C(=O)c1ccccc1-n1nccn1 [Example 40, 4-(Cyclopropyloxy)-2-{[(3R,6R)-6-methyl-1-{[2-(2H-1,2,3-triazol-2-yl)phenyl]carbonyl}-piperidin-3-yl]oxy}pyridine]
- IC50 (human orexin-2 receptor): 15.2 nM
- IC50 (hOX1R): 581 nM

SMILES: Cc1nc(-c2ccccc2C(=O)N2C[C@H](Oc3cc(OCC(F)F)ccn3)CC[C@H]2C)no1 [Example 38, 4-(2,2-difluoroethoxy)-2-{[(3R,6R)-6-methyl-1-{[2-(5-methyl-1,2,4-oxadiazol-3-yl)phenyl]carbonyl}piperidin-3-yl]oxy}pyridine]
- IC50 (human orexin-2 receptor): 56 nM
- IC50 (hOX1R): 2500 nM

SMILES: C[C@@H]1CC[C@@H](Oc2cc(OCC(F)F)ccn2)CN1C(=O)c1ccsc1-c1ncccn1 [Example 64, ((2R,5R)-5-((4-(2,2-Difluoroethoxy)pyridin-2-yl)oxy)-2-methylpiperidin-1-yl)(2-(pyrimidin-2-yl)thiophen-3-yl)methanone]
- IC50 (human orexin-2 receptor): 36 nM
- IC50 (hOX1R): 5210 nM

SMILES: CC(C)COc1ccnc(O[C@@H]2CC[C@@H](C)N(C(=O)c3ccccc3-n3nccn3)C2)c1 [Example 42, 4-(2-methylpropoxy)-2-{[(3R,6R)-6-methyl-1-{[2-(2H-1,2,3-triazol-2-yl)phenyl]carbonyl}piperidin-3-yl]oxy}pyridine]
- IC50 (human orexin-2 receptor): 134 nM
- IC50 (hOX1R): 5610 nM

SMILES: COc1ccc(C(=O)N2C[C@H](Oc3cc(OC(C)C)ccn3)CC[C@H]2C)c(-n2nccn2)c1 [Example 24, 2-{[(3R,6R)-1-{[4-methoxy-2-(2H-1,2,3-triazol-2-yl)phenyl]carbonyl}-6-methylpiperidin-3-yl]oxy}-4-(1-methylethoxy) pyridine]
- IC50 (human orexin-2 receptor): 136 nM
- IC50 (hOX1R): 10000 nM

SMILES: COc1ccnc(O[C@@H]2CC[C@@H](C)N(C(=O)c3ccccc3-n3ncnn3)C2)c1 [Example 6, 4-Methoxy-2-{[(3R,6R)-6-methyl-1-{[2-(2H-tetrazol-2-yl)phenyl]carbonyl}piperidin-3-yl]oxy}pyridine]
- IC50 (human orexin-2 receptor): 19 nM
- IC50 (hOX1R): 2180 nM

SMILES: C[C@@H]1CC[C@@H](Oc2cc(OCC(F)F)ccn2)CN1C(=O)c1ccccc1CS(C)(=O)=O [Example 31, 4-(2,2-difluoroethoxy)-2-{[(3R,6R)-6-methyl-1-({2-[(methylsulfonyl)methyl]phenyl}carbonyl)piperidin-3-yl]oxy}pyridine]
- IC50 (human orexin-2 receptor): 34 nM
- IC50 (hOX1R): > 10000 nM

SMILES: COc1ccnc(O[C@@H]2CC[C@@H](C)N(C(=O)c3ccccc3-n3nccn3)C2)c1C [Example 48, 4-Methoxy-3-methyl-2-{[(3R,6R)-6-methyl-1-{[2-(2H-1,2,3-triazol-2-yl)phenyl]carbonyl}piperidin-3-yl]oxy}pyridine]
- IC50 (human orexin-2 receptor): 9.7 nM
- IC50 (hOX1R): 568 nM

Reference: US9745284B2, “2-pyridyloxy-4-ether orexin receptor antagonists” (MERCK SHARP & DOHME CORP., priority 2013, dated 2017)
